For data set [1], the target named is T1, Type-1 angiotensin II receptor A (Rattus norvegicus, UniProt P25095).
T1 sequence (P25095 whole entry): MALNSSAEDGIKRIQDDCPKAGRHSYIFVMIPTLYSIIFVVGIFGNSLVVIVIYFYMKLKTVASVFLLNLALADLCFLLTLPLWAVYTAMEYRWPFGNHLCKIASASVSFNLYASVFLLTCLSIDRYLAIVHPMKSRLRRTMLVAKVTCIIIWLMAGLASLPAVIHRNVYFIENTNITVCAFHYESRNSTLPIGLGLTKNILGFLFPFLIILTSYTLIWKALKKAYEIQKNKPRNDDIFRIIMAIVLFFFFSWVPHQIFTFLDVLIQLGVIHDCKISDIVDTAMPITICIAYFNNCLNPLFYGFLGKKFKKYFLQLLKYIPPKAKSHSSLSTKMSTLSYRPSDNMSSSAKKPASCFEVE
In words: Displacement of [125I]Sar1,Ile8-Ang2 from AT1 receptor in Wistar rat hepatic membrane. In kind it is cell membranes, Liver. A general note: Displacement assays read how much labelled ligand stays bound in the presence of the test substance.

Data set [2] is described as follows: in vitro. To be noted: human, Caco-2.
Description: Permeability from apical to basolateral side of human Caco-2 cell membrane
Data set [3] addresses T2, Type-1 angiotensin II receptor (Oryctolagus cuniculus, UniProt P34976).
T2 sequence (P34976 whole entry): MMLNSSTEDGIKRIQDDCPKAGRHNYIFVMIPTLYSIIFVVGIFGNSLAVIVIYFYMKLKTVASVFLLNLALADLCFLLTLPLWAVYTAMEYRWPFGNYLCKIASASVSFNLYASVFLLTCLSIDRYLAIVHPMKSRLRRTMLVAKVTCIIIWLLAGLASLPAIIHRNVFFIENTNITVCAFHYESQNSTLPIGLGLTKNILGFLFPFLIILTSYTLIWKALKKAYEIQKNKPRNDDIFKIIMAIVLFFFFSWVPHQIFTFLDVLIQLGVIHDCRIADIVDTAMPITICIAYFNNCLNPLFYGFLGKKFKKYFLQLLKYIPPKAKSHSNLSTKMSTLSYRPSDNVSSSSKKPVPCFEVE
In words: Antagonist activity at AT1 receptor in Ang II-contracted rabbit aortic strips after 60 mins. To be noted: read-out: pA2 (converted).

Data set [4] in a line: AUC in Sprague-Dawley rat at 5 mg/kg, iv. Format: ADME, organism-based. Also noted: dose 5 mg/kg, route intravenous. To be noted: plasma.
Data set [5] in a line: AUC in Sprague-Dawley rat at 15 mg/kg, po. Format: ADME, organism-based. Also noted: dose 15 mg/kg, route oral. The settings on record: plasma.
Data set [6] is described as follows: Half life in Sprague-Dawley rat at 5 mg/kg, iv. Also noted: dose 5 mg/kg, route intravenous. To be noted: in vivo. In kind it is ADME, organism-based.
A short description of data set [7]: Half life in Sprague-Dawley rat at 15 mg/kg, po. Format: ADME, organism-based. Also noted: dose 15 mg/kg, route oral. To be noted: in vivo.
Data set [8] in a line: Cmax in Sprague-Dawley rat at 5 mg/kg, iv. In kind it is ADME, organism-based. Also noted: dose 5 mg/kg, route intravenous. The settings on record: in vivo.
Data set [9] in a line: Cmax in Sprague-Dawley rat at 15 mg/kg, po. To be noted: in vivo. Format: ADME, organism-based. Also noted: dose 15 mg/kg, route oral.
The nature of data set [10]: Tmax in Sprague-Dawley rat at 15 mg/kg, po. Also noted: dose 15 mg/kg, route oral. Format: ADME, organism-based. To be noted: in vivo.
Data set [11] in a line: Oral bioavailability in Sprague-Dawley rat at 15 mg/kg. In kind it is ADME, organism-based. The settings on record: in vivo.

A value given as a limit tells only on which side of the number the result lay.

As to `CCCCn1c(=O)c2ccc(Cl)nc2n1Cc1ccc(-c2ccccc2-c2nnn[nH]2)cc1`, the IC50 in [1] was 168 nM.
The same measure, in the same setting: to `CCn1c(=O)c2ccc(C)nc2n1Cc1ccc(-c2ccccc2-c2nnn[nH]2)cc1` belongs 1870 nM.
On the same count and under the same terms, next, `CCCN1C(=O)c2cccnc2C1Cc1ccc(-c2ccccc2-c2nn[nH]n2)cc1` (centres undefined): over 3000 nM.
`CCCCn1c2ncccc2c(=O)n1Cc1ccc(-c2ccccc2-c2nnn[nH]2)cc1` displayed an IC50 in data set [1] of 39 nM. In data set [2], this compound had a Papp A→B of 3.6 ×10⁻⁶ cm/s. The Kb in data set [3] is 14.8 nM.
In data set [1], `CCCCn1c(=O)c2ccc(N3CCOCC3)nc2n1Cc1ccc(-c2ccccc2-c2nnn[nH]2)cc1` showed a half-maximal inhibitory concentration (IC50) of 600 nM.
On the same count and under the same terms, to `CCCCn1c(=O)c2ccc(C)nc2n1Cc1ccc(-c2ccccc2-c2nnn[nH]2)cc1` belongs 81 nM; to `CC(C)Cn1c(=O)c2cccnc2n1Cc1ccc(-c2ccccc2-c2nn[nH]n2)cc1`, 2300 nM; to `CCCC1c2ncccc2C(=O)N1Cc1ccc(-c2ccccc2-c2nn[nH]n2)cc1` (centres undefined), 154 nM.
`CCCCn1c(=O)c2ccc(NC)nc2n1Cc1ccc(-c2ccccc2-c2nn[nH]n2)cc1`: the IC50 in data set [1] worked out at 124 nM.
Same read-out and setting: next, `CCCn1c(=O)c2cccnc2n1Cc1ccc(-c2ccccc2-c2nnn[nH]2)cc1`: 108 nM.
`CCCCN1C(=O)C2(CCCC2)C(=O)N1Cc1ccc(-c2ccccc2-c2nn[nH]n2)cc1`: the Ki in data set [1] was 25 nM.
As to `CC(C)CCn1c(=O)c2cccnc2n1Cc1ccc(-c2ccccc2-c2nnn[nH]2)cc1`, the IC50 in data set [1] turned out to be 124 nM.
In data set [1], `CCCCn1c2nc(C)ccc2c(=O)n1Cc1ccc(-c2ccccc2-c2nn[nH]n2)cc1` registered a concentration for half-maximal inhibition (IC50) of 90 nM. Moreover, in data set [2], the Papp A→B was found to be 8.7 ×10⁻⁶ cm/s.
For the compound `CCCCN1C(=O)CC2(CCCC2)C(=O)N1Cc1ccc(-c2ccccc2-c2nn[nH]n2)cc1`, the Ki in [1] worked out at 14 nM.
`CCCCn1c(=O)c2ccc(OC)nc2n1Cc1ccc(-c2ccccc2-c2nnn[nH]2)cc1` had an IC50 in [1] of 258 nM.
Compound `CCCCC1c2ncccc2C(=O)N1Cc1ccc(-c2ccccc2-c2nn[nH]n2)cc1` (centres undefined) gave an IC50 in data set [1] of 95 nM. In data set [2], this compound returned an apical-to-basolateral permeability (Papp A→B) of 5.6 ×10⁻⁶ cm/s.
Regarding `CCCCn1c(=O)c2cc(Cl)cnc2n1Cc1ccc(-c2ccccc2-c2nnn[nH]2)cc1`, the IC50 in data set [1] turned out to be 76 nM. For the same compound, the Papp A→B in [2] was found to be 10.8 ×10⁻⁶ cm/s.
Compound `CCCCn1c(=O)c2cc(F)cnc2n1Cc1ccc(-c2ccccc2-c2nnn[nH]2)cc1` displayed an IC50 in data set [1] of 70 nM.
The same measure, in the same setting: next, `CCCCn1c(=O)c2cc(F)c(Cl)nc2n1Cc1ccc(-c2ccccc2-c2nnn[nH]2)cc1`: 427 nM; `CCc1nc2c(C)cc(C)nc2n1Cc1ccc(-c2c(-c3nnn[nH]3)cnc3ccccc23)cc1`: 6.9 nM; `CCCCn1c2nc(Cl)ccc2c(=O)n1Cc1ccc(-c2ccccc2-c2nn[nH]n2)cc1`: 461 nM.
As to `CCCCN1C(=O)C2(CCCC2)CC(=O)N1Cc1ccc(-c2ccccc2-c2nnn[nH]2)cc1`, the Ki in data set [1] was found to be 80 nM.
On to `CCc1nc2c(C)cc(C)nc2n1Cc1ccc(-c2ccccc2-c2nnn[nH]2)cc1` [L-158809], for which, in data set [1], the IC50 came to 0.4 nM.
Same read-out and setting: next, `CCCCn1nc(OCc2ccc(-c3ccccc3-c3nn[nH]n3)cc2)c2cccnc2c1=O`: 114 nM; `CCCc1nc2c(C)cc(C)nc2n1Cc1ccc(-c2ccccc2-c2nn[nH]n2)cc1`: 0.8 nM.
The compound `CCCCn1c(=O)c2cccnc2n1Cc1ccc(-c2ccccc2-c2nn[nH]n2)cc1` gave an IC50 in [1] of 18 nM. For the same compound, the values for the exposure (AUC) in data set [4] and in data set [5] were 1410 ng·h/mL and 3380 ng·h/mL, respectively. For the same compound, the figures for the half-life in [6] and in data set [7] were 60 min and 54 min, respectively. Besides, the Cmax in data set [8] worked out at 6320 ng/mL; in [9], 4100 ng/mL. In data set [10], the Tmax turned out to be 30 min. In data set [11], this compound came in with a bioavailability of 80%. The compound also gave a Papp A→B in data set [2] of 1.78 ×10⁻⁶ cm/s. Besides, the Kb in [3] is 10.5 nM.
In the case of `CCCn1c(=O)c2ccc(C)nc2n1Cc1ccc(-c2ccccc2-c2nnn[nH]2)cc1`, the concentration for half-maximal inhibition (IC50) in [1] came to 291 nM.
On the same count and under the same terms, next, `CCCCCn1c(=O)c2cccnc2n1Cc1ccc(-c2ccccc2-c2nnn[nH]2)cc1`: 53 nM; `O=C1c2cccnc2CN1Cc1ccc(-c2ccccc2-c2nn[nH]n2)cc1`: over 10000 nM; `CCC1c2ncccc2C(=O)N1Cc1ccc(-c2ccccc2-c2nn[nH]n2)cc1` (centres undefined): over 10000 nM.
The same measure, in the same setting: next, `CCCCn1nc(OCc2ccc(-c3ccccc3-c3nnn[nH]3)cc2)c2cccnc21`: 254 nM; `O=c1c2cccnc2n(Cc2ccc(-c3ccccc3-c3nn[nH]n3)cc2)n1Cc1ccccc1`: over 3000 nM.
On the same count and under the same terms, next, `CCCCn1c(=O)c2ccccc2n1Cc1ccc(-c2ccccc2-c2nnn[nH]2)cc1`: 598 nM.
In [1], `CCCn1nc(OCc2ccc(-c3ccccc3-c3nnn[nH]3)cc2)c2cccnc21` came in with an IC50 of 146 nM.

By IC50 is commonly meant the concentration that gives 50% inhibition. A lower IC50 goes with greater potency in that assay. The Papp A→B is how fast a substance crosses the layer from the apical side. Usually Ki stands for the equilibrium dissociation constant of an inhibitor or competing ligand from its target. Higher therefore signals weaker binding. Broadly, the AUC is the area under the concentration-time curve, a measure of exposure. A high value points to high exposure. As a reminder, the half-life is the time in which the quantity being followed falls by half. High values mean slow decline, low ones rapid decline. Broadly, the Cmax is the peak of the concentration-time curve. By Tmax is commonly meant the time at which the peak concentration occurs. The term bioavailability denotes the share of a dose that reaches the circulation, judged against a reference dose that is usually intravenous. A lower bioavailability goes with poor availability.
